Data on 1 compound can be found in paper PMC10763615, “Identification and engineering of potent cyclic peptides with selective or promiscuous binding through biochemical profiling and bioinformatic data analysis” (RSC Chemical Biology, 2023).

Experiment [1] addresses T1, FGF-R1C ECD (Homo sapiens, UniProt P11362).
T1 sequence (P11362 22-376 limits assumed): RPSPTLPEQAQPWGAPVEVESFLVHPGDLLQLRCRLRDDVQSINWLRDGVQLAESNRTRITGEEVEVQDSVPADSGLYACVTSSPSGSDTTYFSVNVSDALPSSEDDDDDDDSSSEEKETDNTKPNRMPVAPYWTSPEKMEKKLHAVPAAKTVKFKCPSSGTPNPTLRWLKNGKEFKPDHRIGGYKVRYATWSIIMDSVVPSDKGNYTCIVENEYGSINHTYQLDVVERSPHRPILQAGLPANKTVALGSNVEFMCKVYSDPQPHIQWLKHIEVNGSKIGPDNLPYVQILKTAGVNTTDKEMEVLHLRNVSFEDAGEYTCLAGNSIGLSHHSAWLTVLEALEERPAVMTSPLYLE
Description: biochemical. The method in brief:
(§1)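 Biolayer interferometry with biotinylated FGF-R ECD on streptavidin biosensors in PBS pH 7.4, 0.05% Tween-20, 0.01% BSA. Multi-concentration: purified peptide dilution series fitted to a multi-point KD model.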

Experiment [2] has as its target T2, FGF-R3C ECD (Homo sapiens, UniProt P22607).
T2 sequence (P22607 23-375 limits assumed): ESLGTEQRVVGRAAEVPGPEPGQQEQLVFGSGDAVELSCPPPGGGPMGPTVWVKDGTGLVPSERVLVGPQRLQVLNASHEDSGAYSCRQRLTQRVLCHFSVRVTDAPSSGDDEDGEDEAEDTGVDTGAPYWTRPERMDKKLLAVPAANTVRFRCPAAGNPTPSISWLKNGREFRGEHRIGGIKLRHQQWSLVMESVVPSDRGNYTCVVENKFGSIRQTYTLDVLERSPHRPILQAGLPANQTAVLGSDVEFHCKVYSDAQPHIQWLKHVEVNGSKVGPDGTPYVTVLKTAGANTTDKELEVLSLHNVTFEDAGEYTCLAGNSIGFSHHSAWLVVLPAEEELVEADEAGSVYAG
Put plainly: biochemical. The method in brief:
as §1

Experiment [3] has as its target T3, FGF-R4 ECD (Homo sapiens, UniProt P22455).
T3 construct: DNA constructs for the extracellular domain (ECD) of human FGF-; HPC4 (C); made in house; host or cells: HEK 293-6E
T3 sequence (P22455 22-369 limits assumed): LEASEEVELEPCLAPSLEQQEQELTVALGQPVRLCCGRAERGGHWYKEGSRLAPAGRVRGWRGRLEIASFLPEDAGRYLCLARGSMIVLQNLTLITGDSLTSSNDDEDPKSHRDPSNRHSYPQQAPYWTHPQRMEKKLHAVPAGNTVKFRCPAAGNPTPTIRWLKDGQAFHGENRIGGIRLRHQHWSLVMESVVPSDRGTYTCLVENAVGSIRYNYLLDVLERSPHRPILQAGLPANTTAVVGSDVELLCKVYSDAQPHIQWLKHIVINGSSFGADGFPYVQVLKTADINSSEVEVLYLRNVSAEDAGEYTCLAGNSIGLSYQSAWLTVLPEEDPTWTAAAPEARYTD
Description: multi-concentration BLI of purified peptides. The format is binding. Conditions: purified NNK library peptides. The method in brief: as §1

In experiment [4] the target is T3, FGF-R4 ECD. Description: single concentration BLI of crude peptides. The format is binding. Conditions: crude NNK peptides, single concentration BLI (Table S3); read-out: KD (4). The method in brief: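 Streptavidin biosensors carrying biotinylated FGF receptor ECD were immersed in peptide (~1 μM for crude single-point runs, a concentration series for purified peptides) and then in peptide-free buffer. KD was obtained by fitting the BLI association and dissociation curves.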

Experiment [5] deals with T4, FGFR1c/KLB (Fc-fused human FGF-R1alpha(IIIc) with beta-klotho) (Homo sapiens, UniProt P11362).
T4 sequence (P11362 22-376 limits assumed): T1 sequence (P11362 22-376 limits assumed)
Put plainly: AlphaScreen FGF21 competitive binding assay. (In general: Bead proximity is the source of the signal in Alpha formats.)

Experiment [6] deals with T5, FGFR3c/BKL (Fc-fused human FGF-R3alpha(IIIc) with beta-klotho) (Homo sapiens, UniProt P22607).
T5 sequence (P22607 23-375 limits assumed): T2 sequence (P22607 23-375 limits assumed)
Description: AlphaScreen FGF21 competitive binding assay.

Experiment [7] deals with T6, FGFR4/KLB (Fc-fused human FGF-R4 with beta-klotho) (Homo sapiens, UniProt P22455).
T6 sequence (P22455 22-369 limits assumed): T3 sequence (P22455 22-369 limits assumed)
Put plainly: AlphaScreen FGF21 competitive binding assay.
Description: Alphascreen binding assay
The competitive binding assay was carried out according to the methods detailed in Hansen. et al using
AlphaScreen.3 All reagents and samples were prepared in assay buffer: 40mM Hepes, 140mM NaCl, 1mM
CaCl2, 0,05% Tween20, pH=7.5, 0.1% BSA. In brief, recombinant human beta-klotho (R&D Systems) was
preincubated for 60 min with the ectodomain, either Fc-fused human FGF-R1alpha(IIIc), FGF-R3alpha(IIIc)
or FGF-R4 (R&D Systems), and the mixture was added to the test peptides in OptiPlate™ (PerkinElmer).
Biotinylated FGF21 and heparin were further added to each well. AlphaScreen bead mix (1:1 mix of Protein
A acceptor beads/ streptavidin-coated donor beads, PerkinElmer) were added to each well incubated
overnight at RT in the dark, and measured on a plate reader (Envision). Assays were carried out in triplicates
with concentrations ranging from 3, 10, 30, 100, 300 ,1000 and 3000 nM of peptide. No peptide control
(media only) was used as a negative control, and unlabeled FGF21 and FGF1 as positive control.
competing with biotinylated natural FGF21 ligand.

Experiment [8] has as its target T1, FGF-R1C ECD. Put plainly: biochemical. The format is binding. Further details: DNA constructs for the extracellular domain (ECD) of human FGF-; HPC4 (C); made in house; host or cells: HEK 293-6E. In short, it runs like this:
as §1

Experiment [9] has as its target T2, FGF-R3C ECD. Description: biochemical. The experiment is classed as binding. Further details: DNA constructs for the extracellular domain (ECD) of human FGF-; HPC4 (C); made in house; host or cells: HEK 293-6E. The method in brief: as §1

The structures appear in SMILES notation. Read-outs that look alike come from different tables or passages of the source.

Broadly, the Kd is a measure of binding affinity in units of concentration. As usually defined, the IC50 is the concentration that inhibits the measured activity by half. Low values mean greater potency, high ones weaker potency. In the case of `CC[C@H](C)[C@@H]1NC(=O)[C@@H](NC(=O)[C@H](CCSC)NC(C)=O)CSSC[C@@H](C(=O)NCC(=O)N[C@@H](CO)C(=O)NCC(=O)N[C@@H](CO)C(=O)N[C@@H](CC(=O)O)C(=O)N[C@@H](Cc2ccc(O)cc2)C(=O)N[C@@H](CCCCN)C(=O)N[C@@H](CC(=O)O)C(=O)N[C@@H](CC(=O)O)C(=O)N[C@@H](CC(=O)O)C(=O)N[C@@H](CC(=O)O)C(=O)N[C@@H](CCCCN)C(N)=O)NC(=O)[C@H](Cc2ccccc2)NC(=O)[C@H]([C@@H](C)CC)NC(=O)[C@H](Cc2ccccc2)NC(=O)[C@@H]2CCCN2C(=O)[C@H](CC(C)C)NC(=O)[C@H](Cc2ccccc2)NC(=O)[C@H](CC(C)C)NC(=O)[C@H](CC(=O)O)NC(=O)[C@H](Cc2ccccc2)NC1=O` [3C.1], the dissociation constant (Kd) in experiment [1] is > 1000 nM; in experiment [2], 95 nM; in experiment [3] it was > 1000 nM; in experiment [4] it was > 10000 nM; in experiment [8], > 10000 nM; in experiment [9], 64 nM. Moreover, the IC50 in [5] was > 1000 nM; in experiment [6], 204 nM; in [7], > 1000 nM.
